# In patent US9451764B2, “Composition comprising insecticide-wax particles” (priority 2010, dated 2016):
# Test system: Blattella germanica
# Assay: Activity of different insecticides on timber, cement and tile
# Format: in vivo
# Excerpt: Example e) illustrates that other active ingredients as well can be used successfully in the context of this invention (as a diluted suspension concentration, i.e. as a spraying liquor of the invention). In addition to deltamethrin, both bendiocarb and beta-cyfluthrin and cyfluthrin can be encapsulated.
# [1] = 50 mg/m^2 (reduced concentration), Cement
# [2] = 50 mg/m^2 (reduced concentration), Tile
# [3] = 100 mg/m^2 (standard concentration), Cement, 30-minute exposure
# [4] = 100 mg/m^2 (standard concentration), Tile, 30-minute exposure
# [5] = 4 mg/m^2 (reduced concentration), Cement
# [6] = 4 mg/m^2 (reduced concentration), Tile
# [7] = 4 mg/m^2 (reduced concentration), Timber
# [8] = 12.5 mg/m^2 (standard concentration), Cement, 30-minute exposure
# [9] = 12.5 mg/m^2 (standard concentration), Tile, 30-minute exposure
# [10] = 12.5 mg/m^2 (standard concentration), Timber, 30-minute exposure
# [11] = 8 mg/m^2 (reduced concentration), Cement
# [12] = 8 mg/m^2 (reduced concentration), Tile
# [13] = 8 mg/m^2 (reduced concentration), Timber
# [14] = 25 mg/m^2 (standard concentration), Cement, 30-minute exposure
# [15] = 25 mg/m^2 (standard concentration), Tile, 30-minute exposure
# [16] = 25 mg/m^2 (standard concentration), Timber, 30-minute exposure
smiles,measurement,setting,value
"CNC(=O)Oc1cccc2c1OC(C)(C)O2 [Bendiocarb, bendiocarb]",Knockdown after 1 h,[1],90%
same,Mortality after 24 h,[1],100%
same,Knockdown after 1 h,[2],100%
same,Mortality after 24 h,[2],100%
same,Knockdown after 1 h,"50 mg/m^2 (reduced concentration), Timber",50%
same,Knockdown after 1 h,[3],100%
same,Mortality after 24 h,[3],100%
same,Knockdown after 1 h,[4],100%
same,Mortality after 24 h,[4],100%
same,Knockdown after 1 h,"100 mg/m^2 (standard concentration), Timber, 30-minute exposure",60%
same,mortality at 50 mg/m2,"Blattella germanica, 24 h, read-out: Mortality after 24 h",100%
same,mortality at 100 mg/m2,"Blattella germanica, read-out: Mortality after 24 h",100%
"CC1(C)C(C=C(Cl)Cl)C1C(=O)OC(C#N)c1ccc(F)c(Oc2ccccc2)c1 (stereo not drawn) [Beta-cyfluthrin, beta-cyfluthrin]",Knockdown after 1 h,[5],100%
same,Mortality after 24 h,[5],100%
same,Knockdown after 1 h,[6],100%
same,Mortality after 24 h,[6],100%
same,Knockdown after 1 h,[7],100%
same,Mortality after 24 h,[7],100%
same,Knockdown after 1 h,[8],100%
same,Mortality after 24 h,[8],100%
same,Knockdown after 1 h,[9],100%
same,Mortality after 24 h,[9],100%
same,Knockdown after 1 h,[10],100%
same,Mortality after 24 h,[10],100%
"CC1(C)[C@H](C(=O)O[C@H](C#N)c2cccc(Oc3ccccc3)c2)[C@@H]1C=C(Br)Br [Deltamethrin, deltamethrin]",Knockdown after 1 h,[5],100%
same,Mortality after 24 h,[5],100%
same,Knockdown after 1 h,[6],100%
same,Mortality after 24 h,[6],100%
same,Knockdown after 1 h,[7],100%
same,Knockdown after 1 h,[8],100%
same,Mortality after 24 h,[8],100%
same,Knockdown after 1 h,[9],100%
same,Mortality after 24 h,[9],100%
same,Knockdown after 1 h,[10],100%
same,mortality at 4 mg/m2,"Blattella germanica, 24 h, 4 mg/m^2 (reduced concentration), Timber, read-out: Mortality after 24 h",100%
same,mortality at 12.5 mg/m2,"Blattella germanica, 12.5 mg/m^2 (standard concentration), Timber, 30-minute exposure, read-out: Mortality after 24 h",100%
CC1(C)C(C=C(Cl)Cl)C1C(=O)OC(C#N)c1ccc(F)c(Oc2ccccc2)c1 (stereo not drawn) [cyfluthrin],Knockdown after 1 h,[11],100%
same,Mortality after 24 h,[11],100%
same,Knockdown after 1 h,[12],100%
same,Mortality after 24 h,[12],100%
same,Knockdown after 1 h,[13],100%
same,Mortality after 24 h,[13],100%
same,Knockdown after 1 h,[14],100%
same,Mortality after 24 h,[14],100%
same,Knockdown after 1 h,[15],100%
same,Mortality after 24 h,[15],100%
same,Knockdown after 1 h,[16],100%
same,Mortality after 24 h,[16],100%
